Test results published in patent US20240174714A1, “TREATMENT OF SKIN DISORDERS” (priority 2021, published 2024).
Read-outs that look alike come from different tables or passages of the source. Square brackets hold non-standard residues; d marks the D form. Peptide text beside a SMILES is read from it. * marks the point of attachment. NH((S)CH(Me)CH2NMe2) = C[C@@H](CN(C)C)N*; NH(1-CH2NMe2-cBu) = CN(C)CC1(N*)CCC1; Benzoyl(4-OMe) = COc1ccc(C(=O)*)cc1; Gly(octyl) = CCCCCCCC[C@H](N)C(=O)O; Oxazole4CO(2-Me) = Cc1nc(C(=O)*)co1; d(hCha) = N[C@H](CCC1CCCCC1)C(=O)O; X4 = COc1ccc2cc(C(=O)*)c(=O)oc2c1; Aoc(2) = CCCCCC[C@H](N)C(=O)O; X6 = O=C(c1ccnc2cc(Cl)ccc12)*; Aib = CC(C)(N)C(=O)O; Bz = O=C(c1ccccc1)*; βAla = NCCC(=O)O

Columns and labels:
[1] = tested on: axenic Leishmania donovani MHOM-ET-67/L82 amastigotes; test: In vitro antiprotozoal assay, axenic amastigotes; assay type: cell-based
Procedure: (§1) The testing of the inventive compounds against Leishmania donovani (strain MHOM/ET/67/L82) was performed in 96 well plates at concentrations in serial dilutions. Tests were done in triplicate.

[2] = tested on: intracellular Leishmania donovani MHOM-ET-67/L82 amastigotes; test: In vitro antiprotozoal assay, intracellular amastigotes; assay type: cell-based; details: intracellular amastigotes; read-out: L.don.InMac IC50
Procedure: as §1

[3] = Cytotoxicity assay (Alamar Blue) on L6-cells; assay type: cell-based, rat
Procedure: Tests were done in triplicate.
The plates were incubated for additional 2 h.

[4] = axenic amastigotes, read-out: L.don.ax. IC50
[5] = rat myoblast L6 cells, read-out: Cytotox L6 IC50

SMILES | IC50 [1, 4] | IC50 [2] | IC50 at 68 h ([3]; rat) | IC50 at 68 h [3, 5] | IC50 [1]
Cc1nc(C(=O)N2CCC[C@@H]2C(=O)N[C@H](CCC2CCCCC2)C(=O)N[C@H](CC(C)C)C(=O)NC(C)(C)C(=O)N[C@H](CC(C)C)C(=O)N[C@H](CC(C)C)C(=O)NC(C)(C)C(=O)NC(C)(C)C(=O)NCCC(=O)NC2(CN(C)C)CCC2)co1 [Compound 7050, (2R)-2-[(2R)-4-cyclohexyl-2-{[(2R)-1-(2-methyl-1,3-oxazole-4-carbonyl)pyrrolidin-2-yl]formamido}butanamido]-N-(1-{[(1R)-1-{[(1R)-1-({1-[(1-{[2-({1-[(dimethylamino)methyl]cyclobutyl}carbamoyl)ethyl]carbamoyl}-1-methylethyl)carbamoyl]-1-methylethyl}carbamoyl)-3-methylbutyl]carbamoyl}-3-methylbutyl]carbamoyl}-1-methylethyl)-4-methylpentanamide] ({Oxazole4CO(2-Me)}-[dP][d(hCha)][dL][Aib][dL][dL][Aib][Aib][βAla]-{NH(1-CH2NMe2-cBu)}) | 5.1 nM | 43.7 nM | 4970 nM | – | –
CCCCCCCC[C@H](NC(=O)[C@@H]1CCCN1C(=O)c1ccccc1)C(=O)N[C@@H](CC(C)C)C(=O)NC(C)(C)C(=O)N[C@@H](CC(C)C)C(=O)N[C@@H](CC(C)C)C(=O)NC(C)(C)C(=O)NC(C)(C)C(=O)NCCC(=O)N[C@@H](C)CN(C)C [Compound 5649, (2S)-2-{[(2S)-1-benzoylpyrrolidin-2-yl]formamido}-N-[(1S)-1-[(1-{[(1S)-1-{[(1S)-1-{[1-({1-[(2-{[(2S)-1-(dimethylamino)propan-2-yl]carbamoyl}ethyl)carbamoyl]-1-methylethyl}carbamoyl)-1-methylethyl]carbamoyl}-3-methylbutyl]carbamoyl}-3-methylbutyl]carbamoyl}-1-methylethyl)carbamoyl]-3-methylbutyl]decanamide] (Bz-P[Gly(octyl)]L[Aib]LL[Aib][Aib][βAla]-{NH((S)CH(Me)CH2NMe2)}) | 3.5 nM | 27.2 nM | – | 274 nM | –
CCCCCCCC[C@H](NC(=O)[C@@H]1CCCN1C(=O)c1ccc(OC)cc1)C(=O)N[C@@H](CC(C)C)C(=O)NC(C)(C)C(=O)N[C@@H](CC(C)C)C(=O)N[C@@H](CC(C)C)C(=O)NC(C)(C)C(=O)NC(C)(C)C(=O)NCCC(=O)N[C@@H](C)CN(C)C [Compound 5912, (2S)—N-[(1S)-1-[(1-{[(1S)-1-{[(1S)-1-{[1-({1-[(2-{[(2S)-1-(dimethylamino)propan-2-yl]carbamoyl}ethyl)carbamoyl]-1-methylethyl}carbamoyl)-1-methylethyl]carbamoyl}-3-methylbutyl]carbamoyl}-3-methylbutyl]carbamoyl}-1-methylethyl)carbamoyl]-3-methylbutyl]-2-{[(2S)-1-(4-methoxybenzoyl)pyrrolidin-2-yl]formamido}decanamide] ({Benzoyl(4-OMe)}-P[Gly(octyl)]L[Aib]LL[Aib][Aib][βAla]-{NH((S)CH(Me)CH2NMe2)}) | 5.1 nM | 12.8 nM | 254 nM | – | –
CCCCCCCC[C@H](NC(=O)[C@@H]1CCCN1C(=O)c1cc2ccc(OC)cc2oc1=O)C(=O)N[C@@H](CC(C)C)C(=O)NC(C)(C)C(=O)N[C@@H](CC(C)C)C(=O)N[C@@H](CC(C)C)C(=O)NC(C)(C)C(=O)NC(C)(C)C(=O)NCCC(=O)N[C@@H](C)CN(C)C [Compound 5769, (2S)-N-[(1S)-1-[(1-{[(1S)-1-{[(1S)-1-{[1-({1-[(2-{[(2S)-1-(dimethylamino)propan-2-yl]carbamoyl}ethyl)carbamoyl]-1-methylethyl}carbamoyl)-1-methylethyl]carbamoyl}-3-methylbutyl]carbamoyl}-3-methylbutyl]carbamoyl}-1-methylethyl)carbamoyl]-3-methylbutyl]-2-{[(2S)-1-(7-methoxy-2-oxo-2H-chromene-3-carbonyl)pyrrolidin-2-yl]formamido}decanamide] (X4-P[Gly(octyl)]L[Aib]LL[Aib][Aib][βAla]-{NH((S)CH(Me)CH2NMe2)}) | 8.1 nM | 216 nM | 423 nM | – | –
COc1ccc(C[C@H](NC(=O)[C@@H]2CCCN2C(=O)c2coc(C)n2)C(=O)N[C@@H](CC(C)C)C(=O)NC(C)(C)C(=O)N[C@@H](CC(C)C)C(=O)N[C@@H](CC(C)C)C(=O)NC(C)(C)C(=O)NC(C)(C)C(=O)NCCC(=O)NC2(CN(C)C)CCC2)cc1 [Compound 6896, (2S)-N-(1-{[(1S)-1-{[(1S)-1-({1-[(1-{[2-({1-[(dimethylamino)methyl]cyclobutyl}carbamoyl)ethyl]carbamoyl}-1-methylethyl)carbamoyl]-1-methylethyl}carbamoyl)-3-methylbutyl]carbamoyl}-3-methylbutyl]carbamoyl}-1-methylethyl)-2-[(2S)-3-(4-methoxyphenyl)-2-{[(2S)-1-(2-methyl-1,3-oxazole-4-carbonyl)pyrrolidin-2-yl]formamido}propanamido]-4-methylpentanamide] ({Oxazole4CO(2-Me)}-PY(Me)L[Aib]LL[Aib][Aib][βAla]-{NH(1-CH2NMe2-cBu)}) | – | 1640 nM | – | 8490 nM | 236 nM
CCCCCCCC[C@H](NC(=O)[C@@H]1CCCN1C(=O)c1ccnc2cc(Cl)ccc12)C(=O)N[C@@H](CC(C)C)C(=O)NC(C)(C)C(=O)N[C@@H](CC(C)C)C(=O)N[C@@H](CC(C)C)C(=O)NC(C)(C)C(=O)NC(C)(C)C(=O)NCCC(=O)N[C@@H](C)CN(C)C [Compound 5768, (2S)-2-{[(2S)-1-(7-chloroquinoline-4-carbonyl)pyrrolidin-2-yl]formamido}-N-[(1S)-1-[(1-{[(1S)-1-{[(1S)-1-{[1-({1-[(2-{[(2S)-1-(dimethylamino)propan-2-yl]carbamoyl}ethyl)carbamoyl]-1-methylethyl}carbamoyl)-1-methylethyl]carbamoyl}-3-methylbutyl]carbamoyl}-3-methylbutyl]carbamoyl}-1-methylethyl)carbamoyl]-3-methylbutyl]decanamide] (X6-P[Gly(octyl)]L[Aib]LL[Aib][Aib][βAla]-{NH((S)CH(Me)CH2NMe2)}) | 33.5 nM | 257 nM | 627 nM | – | –
CCCCCC[C@H](NC(=O)[C@@H]1CCCN1C(=O)c1coc(C)n1)C(=O)N[C@@H](CC(C)C)C(=O)NC(C)(C)C(=O)N[C@@H](CC(C)C)C(=O)N[C@@H](CC(C)C)C(=O)NC(C)(C)C(=O)NC(C)(C)C(=O)NCCC(=O)NC1(CN(C)C)CCC1 [Compound 6894, (2S)—N-[(1S)-1-[(1-{[(1S)-1-{[(1S)-1-({1-[(1-{[2-({1-[(dimethylamino)methyl]cyclobutyl}carbamoyl)ethyl]carbamoyl}-1-methylethyl)carbamoyl]-1-methylethyl}carbamoyl)-3-methylbutyl]carbamoyl}-3-methylbutyl]carbamoyl}-1-methylethyl)carbamoyl]-3-methylbutyl]-2-{[(2S)-1-(2-methyl-1,3-oxazole-4-carbonyl)pyrrolidin-2-yl]formamido}octanamide] ({Oxazole4CO(2-Me)}-P[Aoc(2)]L[Aib]LL[Aib][Aib][βAla]-{NH(1-CH2NMe2-cBu)}) | 20.6 nM | 383 nM | 4740 nM | – | –
